Like-named read-outs stand apart in the source and are kept apart here.
What was measured:
[1] = Cell Based Efficacy (MTT Assay), cytotoxicity toward HFF; conditions: human, HFF cells (human foreskin fibroblasts)
Procedure: Cell Based Efficacy (MTT Assay)
The potency of compounds of the invention are tested for their ability to inhibit cell proliferation and cell viability. The metabolic conversion of 3-(4,5-dimethylthiazol-2-yl)-2,5-diphenyltetrazolium bromide (MTT, Sigma #M2128) to a reduced form was a commonly used measure of cellular viability. Following was the procedure:
Cells are maintained in 75 cm^2 tissue culture flasks until ready for use. The cells are grown and plated for the assay in Dulbecco's modified Eagle's media containing 10% fetal bovine serum. For example, the following cell lines can be used: a) human foreskin fibroblasts (HFF), b) HT29 (human colon carcinoma cell line), c) MDA-MB468 (human breast carcinoma cell line), d) RKO (human colon adenocarcinoma cell line), e) SW620 (human colon carcinoma cell line), f) A549 (human lung carcinoma cell line), and g) MIA PACA (human pancreatic carcinoma cell line). Cells are maintained at 37° C. in 10% CO2, 90% humidified air. Cells are plated in 96-well tissue culture plates at the densities listed below (Table 6). 100 μL of cell suspension was added to each well of the 96-well plate except the top row of the plate which contains no cells and serves as a reference for the spectrophotometer.
Cells are incubated overnight in Dulbecco's modified Eagle's media containing 10% fetal bovine serum at 37° C. in 10% CO2, 90% humidified air prior to dosing. Cells are dosed in 10 sequential 3-fold dilutions starting at 30 μM depending upon the solubility of the compound. Compounds with solubilities of less than 30 μM are dosed at the highest soluble concentration. Stock solutions of compounds are made in 100% dimethyl sulfoxide (DMSO). Stock solutions are diluted in Dulbecco's modified Eagle's media containing 100 ug/mL gentamicin and 0.3 to 0.6% DMSO at the twice the highest concentration to be placed on the cells. If compounds have been dissolved in DMSO the final concentration of DMSO on the cells was kept below 0.3%. 3-fold serial dilutions are performed on each compound to prepare 10 concentrations of the compound for dosing. 100 μL of diluted compound was added to the 100 μL of media currently on the dish. For each concentration of compound, 2–4 replicate wells are prepared.
Cells are returned to incubator and allowed to proliferate in the presence of compound for 72 h before addition of MTT. MTT was prepared in phosphate buffered saline (Irvine Scientific #9240) at a concentration of 2 mg/mL. 50 μL per well of MTT solution was added to the 200 μL of media to yield a final concentration of 0.4 mg/mL and plates are returned to the incubator for 4 h. After 4 h incubation the media, compound and MTT mixture was aspirated from the plates and 100 μL of 100% DMSO was added to each well in addition to 25 uL of Sorenson's Buffer (0.1M glycine, 0.1M NaCl, pH 10.5). Quantitation of metabolic reduction of MTT in each plate was performed by reading optical density at 570 nm wavelength on a Molecular Devices UV max microplate reader. Growth inhibition curves and 50% inhibitory concentrations are determined using Microsoft Excel.

[2] = system: serum TNFα elevation in mice treated with lipopolysaccharide (LPS); assay: Murine LPS-Stimulated Serum TNF Inhibition; type: in vivo; conditions: Mus musculus, 1.5 h, dose 30 mpk, read-out: % inh. (dose): % inhibition of murine TNF production in mice following an LPS challenge
Procedure: Murine LPS—Stimulated Serum TNF Inhibition Protocol
The potency of compounds of the invention as inhibitors of serum TNFα elevation in mice treated with lipopolysaccharide (LPS) was determined as follows; a) for subcutaneous (s.c.) administration, test compound was dissolved in DMSO and added to a mixture of 0.9% sodium chloride solution and 30% Trappsol HPB-20 (Cyclodextrin Technology Development Inc., Gainesville, Fla. USA) for a final DMSO concentration of 1%. The dosing solution was sonicated briefly and 0.2 mL was injected subcutaneously 10 min prior to LPS injection; b) for per oral (p.o.) administration, test compounds were formulated in 0.2 mL of PBS and 0.1% Tween 80 and given orally via gavage 10 min prior to LPS administration.
C3/hen female mice were injected intraperitoneally with 200 μg/kg LPS (Escherichia coil, Serotype 0111:B4, Sigma Chemical Co, St. Louis, Mo.) in PBS and sacrificed 90 min later by CO2 asphyxiation. Blood was immediately taken from the caudal vena cava and plasma prepared and frozen at −80° C. Plasma concentrations of TNF were measured by ELISA (Genzyme Co., Cambridge Mass.).

p38 kinase = biological target: T1, p38 kinase (Homo sapiens, UniProt Q16539); assay: p38 Kinase Assay; type: biochemical
T1 construct: GST (N); made in house; host or cells: E. coli
T1 sequence (Q16539 whole entry): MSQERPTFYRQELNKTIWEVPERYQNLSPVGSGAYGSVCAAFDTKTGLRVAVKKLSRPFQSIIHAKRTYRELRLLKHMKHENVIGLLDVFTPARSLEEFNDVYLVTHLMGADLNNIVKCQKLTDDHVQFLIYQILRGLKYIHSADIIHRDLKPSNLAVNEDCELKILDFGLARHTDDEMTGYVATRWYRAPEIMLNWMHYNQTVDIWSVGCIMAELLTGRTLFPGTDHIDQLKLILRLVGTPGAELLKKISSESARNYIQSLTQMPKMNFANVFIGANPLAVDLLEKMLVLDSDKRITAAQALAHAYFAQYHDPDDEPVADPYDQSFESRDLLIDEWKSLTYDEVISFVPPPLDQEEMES

[3] = system: TNF release from human peripheral blood mononuclear cells (PBMNC); assay: Cell Based Assay for Cytokines Production in PBMNC (TNF release after LPS); conditions: PBMC, read-out: TNF/PBMNC (inhibition of TNF release from human PBMNC following stimulation with LPS, IC50)
Procedure: Cell Based Assay for Cytokines Production in PBMNC
Human peripheral blood mononuclear cells were isolated from heparinized blood by LSM (Organon Teknika) from volunteer donors. Purified human peripheral blood mononuclear cells were then suspended at a concentration of 2×10^6 cells/ml in RPMI 1640 medium supplemented with 10% heat-inactivated FBS and 1% antibiotics. Aliquots of 100 μl (2×10^5 cells) were added to 96-well microliter plates. Test compounds at […] dose ranges (final-DMSO concentration in culture medium was 0.1%) were then added to the cells for 10–15 minutes before the addition of lipopolysaccharide (1 ng/ml). After incubation at 37° C. in a 5% CO2 incubator for 18–20 h, cell free supernatants were collected by centrifugation at 800 g. The supernatant was then assayed for the amount of TNFα and IL-1β by using Quantikine immunoassay kits developed by R&D Systems (Minneapolis, Minn.).

SMILES	IC50 at 72 h ([1]; Table 7, HFF cell line) [µM]	inhibition in vivo at 30 mg/kg ([2]; Table 7, LPS challenge) [%]	IC50 (p38 kinase; Table 7, compounds wherein Z is CH, read-out: P38 kinase (inhibition of p38 kinase, IC50)) [µM]	IC50 ([3]; Table 7, LPS stimulation) [µM]	IC50 at 72 h ([1]; Table 8, HFF cell line) [µM]	inhibition in vivo at 30 mg/kg ([2]; Table 8, LPS challenge) [%]	IC50 (p38 kinase; Table 8, compounds wherein Z is N, read-out: p38 kinase (inhibition of p38 kinase, IC50)) [µM]	IC50 ([3]; Table 8, LPS stimulation) [µM]
OCCCNc1cc(-c2c(-c3ccc(F)cc3)nn3ccccc23)ccn1 [Example 30, 3-(4-[2-(4-Fluorophenyl)pyrazolo[1,5-a]pyridin-3-yl]-2-pyridinylamino)-1-propanol]	> 50	45	< 0.5	< 0.5				
Fc1ccc(-c2nn3ccccc3c2-c2ccncn2)cc1 [Example 56, 2-(4-Fluorophenyl)-3-(4-pyrimidinyl)-pyrazolo[1,5-a]pyridine]					> 50	67	0.5 to 5	0.5 to 5
